The IC50 is the concentration that inhibits the measured activity by half. Broadly, the Ki is the dissociation constant of the complex between target and ligand, obtained from inhibition or displacement.

This is an account of results in ChEMBL document CHEMBL1909046, “DrugMatrix in vitro pharmacology data”.

A short description of data set [1]: DRUGMATRIX: GABAA, Muscimol, Central radioligand binding (ligand: [3H] Muscimol). In kind it is cell membranes, Rattus norvegicus, Wistar, Brain, Membrane. The settings on record: Not Active = under 50% inhibition at 10 µM.
The target of data set [2] is Matrix metalloproteinase-9 (Homo sapiens, UniProt P14780). Description: biochemical. The data set is classed as cell-based.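 Further: inhibition of isolated MMP-9 enzyme activity toward a synthetic peptide substrate, from the DrugMatrix protease screening panel; in other assays of this panel Not Active means under 50% inhibition at 10 µM.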
Chain of Matrix metalloproteinase-9 (P14780 whole entry): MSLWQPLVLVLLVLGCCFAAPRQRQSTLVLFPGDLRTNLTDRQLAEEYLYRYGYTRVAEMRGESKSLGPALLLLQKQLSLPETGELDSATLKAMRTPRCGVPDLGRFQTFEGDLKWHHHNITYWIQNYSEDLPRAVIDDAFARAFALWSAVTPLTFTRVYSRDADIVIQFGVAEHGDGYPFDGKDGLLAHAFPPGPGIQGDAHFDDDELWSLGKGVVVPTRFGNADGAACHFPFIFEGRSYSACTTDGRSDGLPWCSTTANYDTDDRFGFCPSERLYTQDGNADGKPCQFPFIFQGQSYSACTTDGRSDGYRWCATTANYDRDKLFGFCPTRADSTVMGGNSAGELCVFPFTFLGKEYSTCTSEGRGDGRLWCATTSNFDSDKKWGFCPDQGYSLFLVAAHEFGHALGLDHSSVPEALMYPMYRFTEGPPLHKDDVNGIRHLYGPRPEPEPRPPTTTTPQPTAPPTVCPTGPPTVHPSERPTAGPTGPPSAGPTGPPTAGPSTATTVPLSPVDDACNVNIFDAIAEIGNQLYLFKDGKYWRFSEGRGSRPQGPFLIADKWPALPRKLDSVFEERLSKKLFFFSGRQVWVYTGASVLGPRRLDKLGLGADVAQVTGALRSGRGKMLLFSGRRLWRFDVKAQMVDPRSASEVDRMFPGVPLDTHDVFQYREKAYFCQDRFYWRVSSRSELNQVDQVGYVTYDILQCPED
The target in data set [3] is T1, Alpha-1A adrenergic receptor (Rattus norvegicus, UniProt P43140).
T1 sequence (P43140 whole entry): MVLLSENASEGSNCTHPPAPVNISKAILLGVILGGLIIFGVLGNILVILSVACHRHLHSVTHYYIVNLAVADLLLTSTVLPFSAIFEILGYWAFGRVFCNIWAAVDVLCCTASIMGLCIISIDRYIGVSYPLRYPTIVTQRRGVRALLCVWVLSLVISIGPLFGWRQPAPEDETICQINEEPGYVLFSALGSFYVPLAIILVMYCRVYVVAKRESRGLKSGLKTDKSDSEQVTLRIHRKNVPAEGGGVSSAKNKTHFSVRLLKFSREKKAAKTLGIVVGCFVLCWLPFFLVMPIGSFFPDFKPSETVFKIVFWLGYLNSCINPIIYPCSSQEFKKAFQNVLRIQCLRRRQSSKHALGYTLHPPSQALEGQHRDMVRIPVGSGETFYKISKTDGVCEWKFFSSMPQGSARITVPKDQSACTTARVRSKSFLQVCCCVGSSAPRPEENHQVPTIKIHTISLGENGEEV
Nature of the data set: DRUGMATRIX: Alpha-1A adrenergic receptor radioligand binding (ligand: prazosin). The data set is classed as cell membranes, Wistar, Submaxillary gland, Membrane. The settings on record: Not Active = under 50% inhibition at 10 µM.

Data set [4] concerns the target C-C chemokine receptor type 2 (Homo sapiens, UniProt P41597). In kind it is cell membranes, CHO-K1, Membrane. Further: in other assays of this panel Not Active means under 50% inhibition at 10 µM.
The next data set deals with Cytochrome P450 2C9 (Homo sapiens, UniProt P11712). The settings on record: bti-tn-5b1-4.
Chain of Cytochrome P450 2C9 (P11712 whole entry): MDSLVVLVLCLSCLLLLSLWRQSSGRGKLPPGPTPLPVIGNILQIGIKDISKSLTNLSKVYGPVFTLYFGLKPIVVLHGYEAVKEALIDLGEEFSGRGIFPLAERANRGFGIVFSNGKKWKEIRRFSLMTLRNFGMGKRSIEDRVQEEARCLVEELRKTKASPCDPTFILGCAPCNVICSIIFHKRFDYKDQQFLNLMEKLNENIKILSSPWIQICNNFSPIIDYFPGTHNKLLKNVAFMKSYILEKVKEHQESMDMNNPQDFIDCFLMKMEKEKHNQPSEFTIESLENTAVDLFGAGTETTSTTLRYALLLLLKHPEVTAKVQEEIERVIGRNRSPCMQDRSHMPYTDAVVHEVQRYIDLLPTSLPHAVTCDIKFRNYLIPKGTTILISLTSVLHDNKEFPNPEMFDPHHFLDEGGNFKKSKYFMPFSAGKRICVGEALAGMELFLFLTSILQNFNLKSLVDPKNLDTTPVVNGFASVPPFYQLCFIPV
A further data set concerns the target Adenosine receptor A2a (Homo sapiens, UniProt P29274). Description: DRUGMATRIX: Adenosine A2A radioligand binding (ligand: […]). In kind it is cell membranes, HEK293, Membrane. The conditions noted are these: hek293; Not Active = under 50% inhibition at 10 µM.

Where a SMILES comes first, the peptide text is derived from it. Bridges are numbered along the chain shown (N, C = ends). [ ]: non-standard residue; d: D form. The star is where a group is joined. Threoninol(2S,3R) = C[C@@H](O)[C@H](CO)N*

Chain of C-C chemokine receptor type 2 (P41597 whole entry): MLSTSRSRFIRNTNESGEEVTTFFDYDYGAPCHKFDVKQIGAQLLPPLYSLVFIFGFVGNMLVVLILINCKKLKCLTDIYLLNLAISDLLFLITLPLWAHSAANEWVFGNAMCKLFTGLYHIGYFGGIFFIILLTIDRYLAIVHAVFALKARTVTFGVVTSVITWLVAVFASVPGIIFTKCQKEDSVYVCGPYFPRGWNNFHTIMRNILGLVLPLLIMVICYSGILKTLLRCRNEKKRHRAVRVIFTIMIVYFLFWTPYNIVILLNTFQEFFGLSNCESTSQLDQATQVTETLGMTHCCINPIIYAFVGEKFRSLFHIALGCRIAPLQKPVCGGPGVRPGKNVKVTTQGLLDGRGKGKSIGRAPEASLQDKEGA
Chain of Adenosine receptor A2a (P29274 whole entry): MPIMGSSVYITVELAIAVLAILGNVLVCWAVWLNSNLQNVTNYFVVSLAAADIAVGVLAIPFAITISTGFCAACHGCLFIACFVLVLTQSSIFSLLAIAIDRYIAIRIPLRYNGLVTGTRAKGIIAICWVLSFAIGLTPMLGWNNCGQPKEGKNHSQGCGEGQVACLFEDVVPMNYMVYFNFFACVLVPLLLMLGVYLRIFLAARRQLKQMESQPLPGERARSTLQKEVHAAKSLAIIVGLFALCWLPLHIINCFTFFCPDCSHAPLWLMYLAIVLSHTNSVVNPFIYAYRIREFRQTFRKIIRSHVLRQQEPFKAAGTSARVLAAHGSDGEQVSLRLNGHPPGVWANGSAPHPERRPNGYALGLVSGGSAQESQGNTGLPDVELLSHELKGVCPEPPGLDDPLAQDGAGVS

Consider `C[C@@H](O)[C@H](CO)NC(=O)[C@@H]1CSSC[C@H](NC(=O)[C@H](N)Cc2ccccc2)C(=O)N[C@@H](Cc2ccccc2)C(=O)N[C@H](Cc2c[nH]c3ccccc23)C(=O)N[C@@H](CCCCN)C(=O)N[C@@H]([C@@H](C)O)C(=O)N1` (H-[dF]CF[dW]KTC-{Threoninol(2S,3R)}; disulfide 2-7), for which the IC50 result (in data set [1]; in data set [2]; in data set [3]; in data set [4] (cho-k1); against Cytochrome P450 2C9; at Adenosine receptor A2a) was “Not Active” each time. The Ki result (in data set [1]; on Cytochrome P450 2C9) was “Not Active” in each case.
For the compound `S=C=Nc1cccc2ccccc12` [1-NAPHTHYLISOTHIOCYANATE], the IC50 result in data set [1] is “Not Active”; in data set [2], “Not Active”; in data set [3], “Not Active”; in data set [4] (read-out: IC50), 6.7 µM; against Cytochrome P450 2C9 it was “Not Active”; at Adenosine receptor A2a, “Not Active”. In addition, the results for the Ki result (in data set [1]; in data set [4] (read-out: Ki); at Cytochrome P450 2C9) were “Not Active”, 2.59 µM and “Not Active”, respectively.
`C[C@](O)(CS(=O)(=O)c1ccc(F)cc1)C(=O)Nc1ccc(C#N)c(C(F)(F)F)c1` [(R)-BICALUTAMIDE]: the IC50 entry (in data set [1]; in data set [2]; in data set [3]; in data set [4] (cho-k1); against Cytochrome P450 2C9; on Adenosine receptor A2a) was “Not Active” each time. The Ki result (in data set [1]; at Cytochrome P450 2C9) was “Not Active” each time.
On to `CC(=O)Nc1ccc(O)cc1` [ACETAMINOPHEN], for which the IC50 entry (in data set [1]; in data set [2]; in data set [3]; in data set [4] (cho-k1); against Cytochrome P450 2C9; on Adenosine receptor A2a) was “Not Active” in each case. Also, the Ki entry (in data set [1]; on Cytochrome P450 2C9) was “Not Active” throughout.
`COc1cc2c(c3oc(=O)c4c(c13)CCC4=O)[C@@H]1C=CO[C@@H]1O2` [AFLATOXIN]: the IC50 result (in data set [1]; in data set [2]; in data set [3]; in data set [4] (cho-k1); against Cytochrome P450 2C9; at Adenosine receptor A2a) was “Not Active” throughout. Further, the Ki result (in data set [1]; in data set [2]; in data set [3]; in data set [4] (cho-k1); on Cytochrome P450 2C9; at Adenosine receptor A2a) was “Not Active” in each case.
On to `N=C(N)NC(=O)c1nc(Cl)c(N)nc1N` [AMILORIDE], for which the IC50 result (in data set [1]; in data set [2]; in data set [3]; in data set [4] (cho-k1); at Cytochrome P450 2C9; on Adenosine receptor A2a) was “Not Active” in each case. The Ki entry (in data set [1]; at Cytochrome P450 2C9) was “Not Active” in each case.
On to `CN1C(=O)COc2c(C(=O)NC3CN4CCC3CC4)cc(Cl)cc21` (stereo not drawn) [AZASETRON], for which the IC50 entry (in data set [1]; in data set [2]; in data set [3]; in data set [4] (cho-k1); against Cytochrome P450 2C9; on Adenosine receptor A2a) was “Not Active” in each case. Besides, the Ki result (in data set [1]; at Cytochrome P450 2C9) was “Not Active” throughout.
Turning to `C[C@H]1C[C@H]2[C@@H]3CCC4=CC(=O)C=C[C@]4(C)[C@@]3(Cl)[C@@H](O)C[C@]2(C)[C@@]1(O)C(=O)CO` [BECLOMETHASONE], the IC50 entry (in data set [1]; in data set [2]; in data set [3]; in data set [4] (cho-k1); on Cytochrome P450 2C9; on Adenosine receptor A2a) was “Not Active” throughout. Moreover, the Ki entry (in data set [1]; on Cytochrome P450 2C9) was “Not Active” each time.
On to `CCOC(=O)[C@H](CCc1ccccc1)N[C@H]1CCc2ccccc2N(CC(=O)O)C1=O` [BENAZEPRIL], for which the IC50 result (in data set [1]; in data set [2]; in data set [3]; in data set [4] (cho-k1); against Cytochrome P450 2C9; on Adenosine receptor A2a) was “Not Active” in each case. Besides, the Ki entry (in data set [1]; at Cytochrome P450 2C9) was “Not Active” in each case.
As to `Nc1c(CC(=O)O)cccc1C(=O)c1ccc(Br)cc1` [BROMFENAC], the IC50 entry (in data set [1]; in data set [2]; in data set [3]; in data set [4] (cho-k1); on Cytochrome P450 2C9; on Adenosine receptor A2a) was “Not Active” each time. Besides, the Ki result (in data set [1]; at Cytochrome P450 2C9) was “Not Active” each time.
In the case of `CCCCN1CCCCC1C(=O)Nc1c(C)cccc1C.Cl` (stereo not drawn) [BUPIVACAINE HYDROCHLORIDE], the IC50 result (in data set [1]; in data set [2]; in data set [3]; in data set [4] (cho-k1); at Cytochrome P450 2C9; at Adenosine receptor A2a) was “Not Active” in each case. The Ki entry (in data set [1]; at Cytochrome P450 2C9) was “Not Active” throughout.
For `C[C@@]12C(=O)OC(=O)[C@]1(C)[C@H]1CC[C@@H]2O1` [CANTHARIDIN], the IC50 result (in data set [1]; in data set [2]; in data set [3]; in data set [4] (cho-k1); at Cytochrome P450 2C9; on Adenosine receptor A2a) was “Not Active” each time. In addition, the Ki entry (in data set [1]; on Cytochrome P450 2C9) was “Not Active” each time.
For the compound `ClC(Cl)Cl` [CHLOROFORM], the IC50 result (in data set [1]; in data set [2]; in data set [3]; in data set [4] (cho-k1); on Cytochrome P450 2C9; at Adenosine receptor A2a) was “Not Active” each time. For the same compound, the Ki entry (in data set [1]; on Cytochrome P450 2C9) was “Not Active” throughout.
As for `C=C1CC[C@H](O)C/C1=C/C=C1\CCC[C@]2(C)[C@@H]([C@H](C)CCCC(C)C)CC[C@@H]12` [CHOLECALCIFEROL], the IC50 entry (in data set [1]; in data set [2]; in data set [3]; in data set [4] (cho-k1); at Cytochrome P450 2C9; on Adenosine receptor A2a) was “Not Active” in each case. The Ki result (in data set [1]; on Cytochrome P450 2C9) was “Not Active” in each case.
For the compound `C[N+](C)(C)CCO.[Cl-]` [CHOLINE CHLORIDE], the IC50 result (in data set [1]; in data set [2]; in data set [3]; in data set [4] (cho-k1); against Cytochrome P450 2C9; at Adenosine receptor A2a) was “Not Active” throughout. In addition, the Ki entry (in data set [1]; at Cytochrome P450 2C9) was “Not Active” in each case.
In the case of `CC(=O)OCC(=O)[C@@]1(O)CC[C@H]2[C@@H]3CCC4=CC(=O)CC[C@]4(C)[C@H]3C(=O)C[C@@]21C` [CORTISONE ACETATE], the IC50 entry (in data set [1]; in data set [2]; in data set [3]; in data set [4] (cho-k1); at Cytochrome P450 2C9; on Adenosine receptor A2a) was “Not Active” in each case. For the same compound, the Ki entry (in data set [1]; on Cytochrome P450 2C9) was “Not Active” throughout.
Turning to `O=c1ccc2ccccc2o1` [COUMARIN], the IC50 entry (in data set [1]; in data set [2]; in data set [3]; in data set [4] (cho-k1); on Cytochrome P450 2C9; at Adenosine receptor A2a) was “Not Active” in each case. The Ki result (in data set [1]; on Cytochrome P450 2C9) was “Not Active” in each case.
As for `COc1ccc2c(c1)[C@]13CCCC[C@@H]1[C@H](C2)N(C)CC3` [DEXTROMETHORPHAN], the half-maximal inhibitory concentration (IC50) entry (in data set [1]; in data set [2]; in data set [3]; in data set [4] (cho-k1); at Cytochrome P450 2C9; on Adenosine receptor A2a) was “Not Active” in each case. Further, the Ki result (in data set [1]; on Cytochrome P450 2C9) was “Not Active” each time.
Take `CC(=O)Nc1c(I)c(NC(C)=O)c(I)c(C(=O)O)c1I` [DIATRIZOIC ACID]: the IC50 result (in data set [1]; in data set [2]; in data set [3]; in data set [4] (cho-k1); against Cytochrome P450 2C9; on Adenosine receptor A2a) was “Not Active” each time. Also, the Ki result (in data set [1]; on Cytochrome P450 2C9) was “Not Active” each time.
Regarding `COP(=O)(OC)OC=C(Cl)Cl` [DICHLORVOS], the IC50 entry (in data set [1]; in data set [2]; in data set [3]; in data set [4] (cho-k1); against Cytochrome P450 2C9; on Adenosine receptor A2a) was “Not Active” each time. Also, the Ki entry (in data set [1]; at Cytochrome P450 2C9) was “Not Active” throughout.
As for `O=C(O)Cc1ccccc1Nc1c(Cl)cccc1Cl` [DICLOFENAC], the IC50 entry (in data set [1]; in data set [2]; in data set [3]; in data set [4] (cho-k1); on Cytochrome P450 2C9; at Adenosine receptor A2a) was “Not Active” in each case. The Ki entry (in data set [1]; at Cytochrome P450 2C9) was “Not Active” throughout.
